Measured values: patent US9809861B2, “Method of evaluating inhibitory effect on damp-dry malodor” (Kao Corporation, priority 2012, dated 2017)

Experiments:
Assay type in all cases: cell-based
Moraxella sp. KMC4-1 [1] = assay: Sensory evaluation of inhibitory effect on damp-dry malodor on model examination cloth; conditions: summary of Table 14
Description: (§1) Subsequently, by using Moraxella sp. KMC4-1, which is one kind of the microorganisms which produce damp-dry malodor-causing substances, sensory evaluation of the inhibitory effect on damp-dry malodor by the test substance and measurement of production amount of 4M3H as one kind of the damp-dry malodor-causing substances were carried out.
(§2) Moraxella sp. KMC4-1 was inoculated as a test microbe onto SCD-LP agar medium (manufactured by Wako Pure Chemical Industries, Ltd.) and cultured for 1 to 2 weeks at room temperature to give a pre-culture plate. Colony surface was scraped off from the pre-culture plate, suspended in 5 mL of physiological saline, and OD600 was adjusted to 1.0 (about 10^8 CFU/mL).
(§3) A cotton jersey cloth obtained in a constant state after sterilization and drying at 25° C., 40% RH (cotton jersey manufactured by Shikisensha Colo., LTD., without silket finish) was cut to a square of 2 cm×2 cm. To the cloth, a solution prepared by dissolving 0.5 mg of 14-methylhexadecanoic acid, as a sebaceous dirt component, in 0.1 mL methanol, was applied. Then, methanol was dried to solid, to give a model examination cloth.
Methanol solution was prepared for each test substance and applied at 20° C. on the model examination cloth such that applied amount of each test substance was […] per gram of the model examination cloth. It was then dried for 2 hours at room temperature to dry methanol. Thereafter, 0.1 mL of the microbe suspension was coated onto the model examination cloth, and cultured for 24 hours in a petri dish using an incubator at 37° C. with relative humidity of 70%, to obtain a microbe-fixed cloth.
The sensory test of the model examination cloth was evaluated by a professional panel who can distinguish different subjects based on the damp-dry malodor. A sample, in which an inhibitory effect on damp-dry malodor was confirmed, was rated as “A”; a sample, in which it was difficult to determine the inhibitory effect on damp-dry malodor or a Weak inhibitory effect on damp-dry malodor was confirmed, was rated as “B; and a sample, in which no inhibitory effect on damp-dry malodor was confirmed, was rated as “C”.

Moraxella sp. KMC4-1 [2] = assay: Bactericidal test; conditions: 10^6 CFU/mL, 2 hours, 25° C.; Substance (1) 10 ppm, (2)(3)(5)(6) 100 ppm, (4) 500 ppm
Description: To 5 mL of a test solution in which the substances (1) to (7) each were added so as to be the final concentration described in Table 15, the precultured Moraxella sp. KMC4-1 was inoculated so as to be the concentration of 10^6 CFU/mL and cultured for 2 hours at 25° C. while shaking (160 rpm). After that, it was subjected to serial dilution using LP dilution solution (NIHON PHARMACEUTICAL CO., LTD). Then, by using SCD-LP agar medium (NIHON PHARMACEUTICAL CO., LTD), the number of bacteria remained alive was determined.
As for the growth-inhibitory and the bactericidal effect, the evaluation was made as follows: compared to the control, when there was the bacteria number decrease of log 3 or more, it was rated as “A”; when there was the bacteria number decrease of log 1 or more but less than log 3, it was rated as “B”; and when there was the bacteria number decrease of less than log 1, it was rated as “C”.

Moraxella sp. KMC4-1 [3] = assay: Quantification of 4M3H produced in model examination cloth (LC-FL); conditions: for Ratio of suppressing 4M3H production: cotton cloth with 0.5 mg 14-methylhexadecanoic acid, 24 hours, 37° C., relative to no test substance, Substance (1) 10 ppm, (2)(3)(5)(6) 100 ppm, (4) 500 ppm; for 4M3H production inhibition ratio: summary of Table 14
Description: as §1, §2, §3
[…] It was then dried for 2 hours at room temperature to dry methanol. Thereafter, 0.1 mL of the microbe suspension was coated onto the model examination cloth, and cultured for 24 hours in a petri dish using an incubator at 37° C. with relative humidity of 70%, to obtain a microbe-fixed cloth.
Further, the model examination cloth was analyzed by using LC-FL (liquid chromatography apparatus: HITACHI ELITE LaChrom (trade name, manufactured by Hitachi, Ltd.), column: Lichrosphere 100 RP-8(e) (trade name, manufactured by Agilent Technologies, Inc., 5 μm×125 mm×4 mmφ), column temperature: 40° C., eluent: a mixed solution of acetonitrile/water=7/3 (volume ratio), flow rate: 1.0 mL/min, detector: excitation wavelength (365 nm), measurement wavelength (412 nm)), and thereby quantification of 4M3H thus produced in the model examination cloth was carried out. Ratio of the produced 4M3H amount relative to the 4M3H production amount when no test substance was added was calculated, and then ratio of suppressing 4M3H production was calculated.

CNc1ccccc1C(=O)OC [Substance (3)]
inhibitory effect on damp-dry malodor (Moraxella sp. KMC4-1 [1]): an inhibitory effect on damp-dry malodor was observed
Bactericidal effect (Moraxella sp. KMC4-1 [2]): C (the bacteria number decrease of less than log 1)
Ratio of suppressing 4M3H production (Moraxella sp. KMC4-1 [3]): 91%
4M3H production inhibition ratio (Moraxella sp. KMC4-1 [3]): high

CCCCCCCC/C=C\CCCCCCCC(=O)O [Substance (4)]
inhibitory effect on damp-dry malodor (Moraxella sp. KMC4-1 [1]): an inhibitory effect on damp-dry malodor was observed
Bactericidal effect (Moraxella sp. KMC4-1 [2]): C (the bacteria number decrease of less than log 1)
Ratio of suppressing 4M3H production (Moraxella sp. KMC4-1 [3]): 81%
4M3H production inhibition ratio (Moraxella sp. KMC4-1 [3]): high

O=C[C@H](O)[C@@H](O)[C@H](O)[C@H](O)CO [Substance (5)]
Bactericidal effect (Moraxella sp. KMC4-1 [2]): C (the bacteria number decrease of less than log 1)
Ratio of suppressing 4M3H production (Moraxella sp. KMC4-1 [3]): 0%

CCCCCCCCCC=O [Substance (1)]
inhibitory effect on damp-dry malodor (Moraxella sp. KMC4-1 [1]): an inhibitory effect on damp-dry malodor was observed
Bactericidal effect (Moraxella sp. KMC4-1 [2]): C (the bacteria number decrease of less than log 1)
Ratio of suppressing 4M3H production (Moraxella sp. KMC4-1 [3]): 100%
4M3H production inhibition ratio (Moraxella sp. KMC4-1 [3]): high

CC(=O)OC(C)(C)Cc1ccccc1 [Substance (2)]
inhibitory effect on damp-dry malodor (Moraxella sp. KMC4-1 [1]): an inhibitory effect on damp-dry malodor was observed
Bactericidal effect (Moraxella sp. KMC4-1 [2]): C (the bacteria number decrease of less than log 1)
Ratio of suppressing 4M3H production (Moraxella sp. KMC4-1 [3]): 100%
4M3H production inhibition ratio (Moraxella sp. KMC4-1 [3]): high
